The results in this text go back to patent publication US20220265785A1, “COMPOSITION FOR PREVENTING OR TREATING URIC ACID-RELATED DISEASE” (GUANGZHOU CENTURY CLINICAL RESEARCH CO., LTD, priority 2019, published 2022).

The subject of assay [1] is hyperuricemia model animals. Briefly: Effect on serum uric acid level of hyperuricemia model rats (potassium oxonate + uric acid). The assay is classed as in vivo, SD rats. Particulars: for Serum uric acid content, Day 0: Day 0, before modeling and before drug, 8 rats; for Serum uric acid content, Day 0 / Serum uric acid content, Day 12 / Serum uric acid content, Day 18: X ± SD; for Serum uric acid content, Day 12: Day 12, after modeling, before drug (dosing from D13). From the text: (§1) Lysozyme granules, enteric lysozyme granules, and benzbromarone fine granules. Each test drug was moistened and uniformly mixed with 0.5% sodium carboxymethylcellulose for easy administration.
(§2) SD rats. The rats had free access to drinking water and food, and they were adaptively reared for one week before test.
(§3) Except for rats in the blank group, the other rats were modeled for 12 days, and the serum uric acid level of each rat was detected. Then the rats were evenly divided into groups according to the uric acid level of each rat, with 8 animals in each group.
(§4) Lysozyme groups and enteric lysozyme groups: High and low doses of the lysozyme granules and enteric lysozyme granules were respectively taken orally, and the dosages were 10 mg/kg and 30 mg/kg based on the active ingredient, once a day.
(§5) Benzbromarone group: The benzbromarone fine granules were taken orally at a dose of 30 mg/kg based on the active ingredient, once a day.
(§6) The test was carried out for a total of 18 days.
(§7) On day 1 of the test, except for the animals in the blank group, the animals in the other groups were orally given a modeling agent (1.5 g/kg potassium oxonate +0.3 g/kg uric acid, dissolved in 0.5% sodium carboxymethylcellulose) once to start modeling, and thereafter, the same amount of the modeling agent was administrated at the same time every day. 0.5 ml of blood was taken from the orbit before the start of the test (DO) and on day 12
(§8) (D12) of the test, respectively, and centrifuged, then the serum was taken and tested for serum uric acid level using a uric acid assay kit and a microplate reader; in addition, 0.5 g of fresh midsection rat feces were taken, diluted and uniformly mixed with four times volume of phosphate buffer, centrifuged, ultrasonically mixed until uniform, incubated at 100° C. for 40 minutes, cooled and then centrifuged, and the supernatant was taken and tested for fecal uric acid level using the uric acid assay kit and the microplate reader.
(§9) Thereafter, the rats were grouped according to the serum uric acid value of each rat. From day 13 (D13), each rat was given the test drug intragastrically every day, as well as the modeling agent every day. The interval between the administration of the test drug and the administration of the modeling agent was more than 1 hour. The drug administration was stopped after day 18 (D18) of the test, and the serum uric acid levels and fecal uric acid levels were determined according to the previous method.

Assay [2] relates to hyperuricemia model animals. Briefly: Effect on fecal uric acid level of hyperuricemia model rats (potassium oxonate + uric acid). The note with it: for Fecal uric acid content, Day 0: Day 0, before modeling and before drug; for Fecal uric acid content, Day 0 / Fecal uric acid content, Day 12 / Fecal uric acid content, Day 18: X ± SD; for Fecal uric acid content, Day 12: Day 12, after modeling, before drug; for Fecal uric acid levels compared with the model control group: day 18. The assay is classed as in vivo, SD rats.
Text: as §1, §2, §3, §4, §5, §6, §7, §8, §9

Assay [3] relates to patient with hyperuricemia accompanied by gout. Briefly: Lysozyme enteric tablets in patient with hyperuricemia accompanied by gout. The note with it: same patient before lysozyme; serum uric acid remained at 700 μmol/L or more. The assay is classed as in vivo, human. From the text: The administration of lysozyme enteric tablets (produced by Xiangbei Welman Pharmaceutical Co., Ltd.) by two patients with hyperuricemia is described below to specifically illustrate the present disclosure.
A person suffering from gout had obvious redness, swelling and pain in the ankles and toes, and difficulty in walking. […] The lysozyme enteric tablets were tried daily (once in the morning, once at noon and once in the evening, 2 g each time). One month later, they felt that the frequency of pain episodes decreased and the difficulty in walking was alleviated.

Where [4] appears, read: 30 mg/kg oral once a day D13-D18.
[5] abbreviates: 10 mg/kg oral once a day D13-D18.

Consider `CCc1oc2ccccc2c1C(=O)c1cc(Br)c(O)c(Br)c1` [Benzbromarone, reference compound], for which, in assay [1] (30 mg/kg group), the “Serum uric acid content, Day 0” value was found to be 41.02 ± 3.71 µmol/L and the “Serum uric acid content, Day 12” value was 117.14 ± 17.74 µmol/L. The “Serum uric acid content, Day 18” value in assay [1] (setting [4]) came out at 153.45 ± 26.17 µmol/L. In addition, in assay [2] (30 mg/kg group), the “Fecal uric acid content, Day 0” value is 1.12 ± 0.17 mmol/L and the “Fecal uric acid content, Day 12” value is on record as 1.25 ± 0.31 mmol/L. In addition, the “Fecal uric acid content, Day 18” value in assay [2] (setting [4]) is listed as 1.34 ± 0.31 mmol/L. In addition, the “Fecal uric acid levels compared with the model control group” value in assay [2] is recorded as “did not increase significantly”.

On to `Oc1ncnc2[nH]ncc12` [allopurinol], for which the “Effects of past use to relieve pain and reduce uric acid” value in assay [3] is “not good”.

In the case of `CC(C)Cc1ccc(C(C)C(=O)O)cc1` (centres unmarked) [ibuprofen], the “Effects of past use to relieve pain and reduce uric acid” value in assay [3] was “not good”.

Turning to “Lysozyme: Homemade granules: lysozyme with a potency of more than 20000 U/mg mixed with the same amount of starch, granulated with water”, the “Serum uric acid content, Day 0” value in assay [1] (10 mg/kg group) came out at 43.66 ± 4.16 µmol/L; in assay [1] (30 mg/kg group) it was 40.49 ± 3.33 µmol/L. The “Serum uric acid content, Day 12” value in assay [1] (10 mg/kg group) worked out at 122.12 ± 10.27 µmol/L; in assay [1] (30 mg/kg group) it was 120.79 ± 17.64 µmol/L. Besides, the “Serum uric acid content, Day 18” value in assay [1] (setting [5]) is 161.97 ± 22.11 µmol/L; in assay [1] (setting [4]), 149.76 ± 20.12 µmol/L. Further, in assay [1] (day 18), the “Serum uric acid levels compared with the model control group” value is “significantly lower”. Besides, the “Fecal uric acid content, Day 0” value in assay [2] (10 mg/kg group) stood at 0.98 ± 0.13 mmol/L; in assay [2] (30 mg/kg group), 1.15 ± 0.16 mmol/L. For the same molecule, the “Fecal uric acid content, Day 12” value was 1.26 ± 0.24 mmol/L in assay [2] (10 mg/kg group) and 1.24 ± 0.20 mmol/L in assay [2] (30 mg/kg group). The “Fecal uric acid content, Day 18” value in assay [2] (setting [5]) amounted to 1.84 ± 0.20 mmol/L; in assay [2] (setting [4]), 1.98 ± 0.20 mmol/L. Further, the “Fecal uric acid levels compared with the model control group” value in assay [2] is recorded as “significantly higher”.
